The subject of the data set is RSV. As to the kind of experiment: anti-RSV activity in infected HEp-2 cells (reduction of cytopathic effects, neutral red uptake assay). Format: cell-based, Respiratory Syncytial Virus. The text has this:
A comparison of the efficacies of RBI245 treatment and conventional ribarvirin treatment can be obtained by determining the RSV-inhibitory concentration and the cytotoxic concentration of each compound. Cultures of the human laryngeal carcinoma cell line HEp-were established and infected with an MOI=0.02. Treatment with either ribavirin or RBI245 was begun one hour post-infection. The effects of treatment on RSV infection were reported as an EC50, the concentration at which there was a 50% reduction in the observable cytopathic effects of infection. The results of the treatment of HEp-2 cells with RBI245, ribavirin, and other activator-antisense complexes are shown in FIG. 1 and summarized in Table 2. […] Therefore, the activity of RBI245 in vitro is more than 1000-fold better than ribavarin, the only approved drug for the treatment of RSV. No toxicity was found for any of the 2-5A oligonucleotide compounds up to the maximum dosage tested (3.2 μM).
For orientation: Protection from cytopathic effect is a common read-out in antiviral testing.

The mark [1] stands for this setting: HEp-2 cells infected with RSV, MOI=0.02, treatment begun one hour post-infection, read-out: EC50 in μM (50% Effective dose based on neutral red uptake assay).

The values below come from US20030203356A1, “RNase L activator-antisense complexes” (priority 2002, published 2003).

Read-outs that look alike come from different tables or passages of the source. Oligonucleotides are written 5' to 3', each unit as a sugar letter and its base; * is a phosphorothioate linkage, no mark a phosphodiester; rarer units and linkages stand in square brackets, end groups in braces. Plain capitals give the bases only. {spA4} = thiophosphorylated 2',5'-linked tetraadenylate (2-5A), RNase L activator; {spA3} = thiophosphorylated 2',5'-linked triadenylate (2-5A), RNase L activator; {S9} = spacer 9 linker, triethylene glycol phosphate; {BU2} = two butanediol phosphate linkers; m = 2'-O-methyl

Regarding “5′sp-A2′s5′A2′s5′A2′s5′A2′-p(CH2CH2O)3-p-5′(AsAsAsAAUGGGGCAAAsUsAsA)m03′ (antisense {spA4}-{S9}-mA*mA*mA*mAmAmUmGmGmGmGmCmAmAmA*mU*mA*mA; 5' 2-5A activator attached via triethylene glycol linker, further chemistry not given here) [RBI245]”, the EC50 (HEp-2 cells, MOI=0.02, treatment one hour post-infection, read-out: EC50, concentration at which there was a 50% reduction in the observable cytopathic effects of infection) is 0.02 µM. Further, the “anti-RSV activity in vitro relative to ribavirin” value (ratio of in vitro potency versus ribavirin) is on record as “more than 1000 fold”.

Regarding “spA4-BU2-(GsAsTsAGAAATAGAAAsGsCsA)m-3′ (GATAGAAATAGAAAGCA; antisense; all 2'-O-methyl, linkages s3 o10 s3 (s phosphorothioate, o phosphodiester), 5' {spA4}-{BU2}, T or U not given here; 5' 2-5A activator attached via linker) [RBI066, scrambled control, reference compound]”, the EC50 under setting [1] is more than 3.2 µM.

In the case of “spA4-BU2-(AsAsAsAAUGGGGCAAAsUsAsA)m3′ ({spA4}-{BU2}-mA*mA*mA*mAmAmUmGmGmGmGmCmAmAmA*mU*mA*mA; antisense; 5' 2-5A activator attached via linker) [RBI034]”, the EC50 under setting [1] turned out to be 0.6 µM.

Take `NC(=O)c1ncn([C@@H]2O[C@H](CO)[C@@H](O)[C@H]2O)n1` [Ribavirin, reference compound]: the EC50 was 60 µM (human respiratory syncytial virus, 1 h, HEp-2 cells infected with RSV, MOI=0.02, treatment begun one hour post-infection, read-out: EC50 in μM (50% Effective dose based on neutral red uptake assay)) and 60 µM (human respiratory syncytial virus, 1 h, HEp-2 cells, MOI=0.02, treatment one hour post-infection, read-out: EC50, concentration at which there was a 50% reduction in the observable cytopathic effects of infection).

With “(spA)3-S9-(AsAsAsAAUGGGGCAsAsA)m-3′ ({spA3}-{S9}-mA*mA*mA*mAmAmUmGmGmGmGmCmA*mA*mA; antisense; 5' 2-5A activator attached via linker) [RBI243, shortened version of 245]”, the EC50 under setting [1] amounted to 0.3 µM.
